Measured values: patent US9067926B2, “Fluoromethyl-5,6-dihydro-4H-[1,3]OXAZINES” (F. Hoffmann-La Roche AG, priority 2012, dated 2015)

Molecular target: T1, BACE1 (Homo sapiens, UniProt P56817)
T1 construct: endogenous in cells; host or cells: HEK293 APP cells
Assay: Cellular Aβ-lowering assay (Abeta 40 AlphaLISA)
Type: cell-based
Conditions: HEK293 APP cells, 18-20 hrs incubation, Aβ 40 in culture supernatant; read-out: BACE1 cell act. Aβ40 IC50
Procedure: Cellular Aβ-Lowering Assay:
The Abeta 40 AlphaLISA Assay can be used. The HEK293 APP cells were seeded in 96 well Microtiter plates in cell culture medium (Iscove's, plus 10% (vv) fetal bovine serum, penicillinstreptomycin) to about 80% confluency and the compounds were added at a 3× concentration in 13 volume of culture medium (final DMSO concentration was kept at 1% vv). After 18-20 hrs incubation at 37° C. and 5% CO2 in a humidified incubator, the culture supernatants were harvested for the determination of Aβ 40 concentrations using Perkin-Elmer Human Amyloid beta 1-40 (high specificity) Kit (Cat# AL275C).
Levels of Aβ 40 in the culture supernatants were calculated as percentage of maximum signal (cells treated with 1% DMSO without inhibitor). The IC50 values were calculated using the Excel XLfit software.

T1 sequence (P56817 46-501): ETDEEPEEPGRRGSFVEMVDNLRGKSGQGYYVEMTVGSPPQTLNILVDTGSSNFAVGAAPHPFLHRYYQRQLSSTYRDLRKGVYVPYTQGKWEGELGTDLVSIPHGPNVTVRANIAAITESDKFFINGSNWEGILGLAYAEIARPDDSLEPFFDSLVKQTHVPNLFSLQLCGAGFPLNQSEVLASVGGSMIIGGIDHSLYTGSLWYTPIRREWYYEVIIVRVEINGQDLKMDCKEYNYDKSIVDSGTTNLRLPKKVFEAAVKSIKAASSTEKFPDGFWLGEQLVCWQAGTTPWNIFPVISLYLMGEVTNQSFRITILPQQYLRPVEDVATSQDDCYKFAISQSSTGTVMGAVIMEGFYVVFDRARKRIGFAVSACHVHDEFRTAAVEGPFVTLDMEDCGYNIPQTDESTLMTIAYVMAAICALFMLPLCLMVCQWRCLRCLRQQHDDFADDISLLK

Structure (SMILES): Cc1cc(C#N)cnc1C(=O)Nc1ccc(F)c([C@]2(CF)C[C@@H](C(F)(F)F)OC(N)=N2)c1 [Example 27, N-(3-((4S,6S)-2-Amino-4-(fluoromethyl)-6-(trifluoromethyl)-5,6-dihydro-4H-1,3-oxazin-4-yl)-4-fluorophenyl)-5-cyano-3-methylpicolinamide]
- IC50: 2 nM

Structure (SMILES): NC1=N[C@](CF)(c2cc(NC(=O)c3cnc(OCC(F)(F)F)cn3)ccc2F)C[C@@H](C(F)(F)F)O1 [Example 41, N-(3-((4S,6S)-2-Amino-4-(fluoromethyl)-6-(trifluoromethyl)-5,6-dihydro-4H-1,3-oxazin-4-yl)-4-fluorophenyl)-5-(2,2,2-trifluoroethoxyl)pyrazine-2-carboxamide]
- IC50: 17 nM

Structure (SMILES): C[C@@]1(c2cc(NC(=O)c3coc(CF)n3)ccc2F)C[C@@H](C(F)(F)F)OC(N)=N1 [Example 25, N-(3-((4S,6S)-2-Amino-4-methyl-6-(trifluoromethyl)-5,6-dihydro-4H-1,3-oxazin-4-yl)-4-fluorophenyl)-2-(fluoromethyl)oxazole-4-carboxamide]
- IC50: 0.8 nM

Structure (SMILES): NC1=N[C@](CF)(c2cc(NC(=O)c3cnc(OC(F)F)cn3)ccc2F)C[C@@H](C(F)(F)F)O1 [Example 39, N-(3-((4S,6S)-2-Amino-4-(fluoromethyl)-6-(trifluoromethyl)-5,6-dihydro-4H-1,3-oxazin-4-yl)-4-fluorophenyl)-5-(difluoromethoxy)pyrazine-2-carboxamide]
- IC50: 0.4 nM

Structure (SMILES): NC1=N[C@](CF)(c2cc(NC(=O)c3ccc(Cl)cn3)ccc2F)C[C@@H](C(F)(F)F)O1 [Example 4, N-(3-((4S,6S)-2-amino-4-(fluoromethyl)-6-(trifluoromethyl)-5,6-dihydro-4H-1,3-oxazin-4-yl)-4-fluorophenyl)-5-chloropicolinamide]
- IC50: 22 nM

Structure (SMILES): NC1=N[C@](CF)(c2cc(NC(=O)c3cnc(OCC(F)F)cn3)ccc2F)C[C@@H](C(F)(F)F)O1 [Example 40, N-(3-((4S,6S)-2-Amino-4-(fluoromethyl)-6-(trifluoromethyl)-5,6-dihydro-4H-1,3-oxazin-4-yl)-4-fluorophenyl)-5-(2,2-difluoroethoxyl)pyrazine-2-carboxamide]
- IC50: 29 nM

Structure (SMILES): Cc1cnc(C(=O)Nc2ccc(F)c([C@]3(C)C[C@@H](C(F)(F)F)OC(N)=N3)c2)cn1 [Example 21, N-(3-((4S,6S)-2-Amino-4-methyl-6-(trifluoromethyl)-5,6-dihydro-4H-1,3-oxazin-4-yl)-4-fluorophenyl)-5-methylpyrazine-2-carboxamide]
- IC50: 59 nM

Structure (SMILES): C[C@@]1(c2cc(NC(=O)c3ccc(OC(F)(F)F)cn3)ccc2F)C[C@@H](C(F)(F)F)OC(N)=N1 [Example 16, N-(3-((4S,6S)-2-Amino-4-methyl-6-(trifluoromethyl)-5,6-dihydro-4H-1,3-oxazin-4-yl)-4-fluorophenyl)-5-(trifluoromethoxy)picolinamide]
- IC50: 1 nM

Structure (SMILES): C[C@@]1(c2cc(NC(=O)c3cnc(OCF)cn3)ccc2F)C[C@@H](C(F)(F)F)OC(N)=N1 [Example 23, N-(3-((4S,6S)-2-Amino-4-methyl-6-(trifluoromethyl)-5,6-dihydro-4H-1,3-oxazin-4-yl)-4-fluorophenyl)-5-(fluoromethoxy)pyrazine-2-carboxamide]
- IC50: 1 nM

Structure (SMILES): NC1=N[C@](CF)(c2cc(NC(=O)c3cnc(OCF)cn3)ccc2F)C[C@@H](C(F)(F)F)O1 [Example 43, N-(3-((4S,6S)-2-Amino-4-(fluoromethyl)-6-(trifluoromethyl)-5,6-dihydro-4H-1,3-oxazin-4-yl)-4-fluorophenyl)-5-(fluoromethoxy)pyrazine-2-carboxamide]
- IC50: 3 nM

Structure (SMILES): N#Cc1ccc(C(=O)Nc2ccc(F)c([C@]3(C(F)F)C[C@H](C(F)(F)F)OC(N)=N3)c2)nc1 [Example 48, N-(3-((4S,6R)-2-Amino-4-(difluoromethyl)-6-(trifluoromethyl)-5,6-dihydro-4H-1,3-oxazin-4-yl)-4-fluorophenyl)-5-cyanopicolinamide]
- IC50: 520 nM

Structure (SMILES): C[C@@]1(c2cc(NC(=O)c3cnc(OCC(F)(F)F)cn3)ccc2F)C[C@@H](C(F)(F)F)OC(N)=N1 [Example 7, N-(3-((4S,6S)-2-amino-4-methyl-6-(trifluoromethyl)-5,6-dihydro-4H-1,3-oxazin-4-yl)-4-fluorophenyl)-5-(2,2,2-trifluoroethoxyl)pyrazine-2-carboxamide]
- IC50: 15 nM

Structure (SMILES): NC1=N[C@](CF)(c2cc(NC(=O)c3cnc(CF)cn3)ccc2F)C[C@@H](C(F)(F)F)O1 [Example 37, N-(3-((4S,6S)-2-Amino-4-(fluoromethyl)-6-(trifluoromethyl)-5,6-dihydro-4H-1,3-oxazin-4-yl)-4-fluorophenyl)-5-(fluoromethyl)ypyrazine-2-carboxamide]
- IC50: 53 nM

Structure (SMILES): NC1=N[C@](CF)(c2cc(NC(=O)c3cnc(C(F)F)cn3)ccc2F)C[C@@H](C(F)(F)F)O1 [Example 45, N-(3-((4S,6S)-2-Amino-4-(fluoromethyl)-6-(trifluoromethyl)-5,6-dihydro-4H-1,3-oxazin-4-yl)-4-fluorophenyl)-5-(difluoromethyl)pyrazine-2-carboxamide]
- IC50: 39 nM

Structure (SMILES): C[C@@]1(c2cc(NC(=O)c3ccc(Cl)cn3)ccc2F)C[C@H](C(F)(F)F)OC(N)=N1 [Example 9, N-(3-((4S,6R)-2-Amino-4-methyl-6-(trifluoromethyl)-5,6-dihydro-4H-1,3-oxazin-4-yl)-4-fluorophenyl)-5-chloropicolinamide]
- IC50: 710 nM

Structure (SMILES): C[C@@]1(c2cc(NC(=O)c3cnc(C(F)F)cn3)ccc2F)C[C@@H](C(F)(F)F)OC(N)=N1 [Example 20, N-(3-((4S,6S)-2-Amino-4-methyl-6-(trifluoromethyl)-5,6-dihydro-4H-1,3-oxazin-4-yl)-4-fluorophenyl)-5-(difluoromethyl)pyrazine-2-carboxamide]
- IC50: 5 nM

Structure (SMILES): COc1cnc(C(=O)Nc2ccc(F)c([C@]3(C)C[C@@H](C(F)(F)F)OC(N)=N3)c2)cn1 [Example 5, N-(3-((4S,6S)-2-amino-4-methyl-6-(trifluoromethyl)-5,6-dihydro-4H-1,3-oxazin-4-yl)-4-fluorophenyl)-5-methoxypyrazine-2-carboxamide]
- IC50: 5 nM

Structure (SMILES): C[C@@]1(c2cc(NC(=O)c3ccc(OC(F)F)cn3)ccc2F)C[C@@H](C(F)(F)F)OC(N)=N1 [Example 15, N-(3-((4S,6S)-2-Amino-4-methyl-6-(trifluoromethyl)-5,6-dihydro-4H-1,3-oxazin-4-yl)-4-fluorophenyl)-5-(difluoromethoxy)picolinamide]
- IC50: 1 nM

Structure (SMILES): CC#CCOc1cnc(C(=O)Nc2ccc(F)c([C@]3(CF)C[C@@H](C(F)(F)F)OC(N)=N3)c2)cn1 [Example 38, N-(3-((4S,6S)-2-Amino-4-(fluoromethyl)-6-(trifluoromethyl)-5,6-dihydro-4H-1,3-oxazin-4-yl)-4-fluorophenyl)-5-(but-2-ynyloxy)pyrazine-2-carboxamide]
- IC50: 0.6 nM

Structure (SMILES): N#Cc1ccc(C(=O)Nc2ccc(F)c([C@]3(C(F)F)C[C@@H](C(F)(F)F)OC(N)=N3)c2)nc1 [Example 49, N-(3-((4S,6S)-2-Amino-4-(difluoromethyl)-6-(trifluoromethyl)-5,6-dihydro-4H-1,3-oxazin-4-yl)-4-fluorophenyl)-5-cyanopicolinamide]
- IC50: 82 nM

Structure (SMILES): NC1=N[C@](CF)(c2cc(NC(=O)c3ccc(OC(F)F)cn3)ccc2F)C[C@@H](C(F)(F)F)O1 [Example 31, N-(3-((4S,6S)-2-Amino-4-(fluoromethyl)-6-(trifluoromethyl)-5,6-dihydro-4H-1,3-oxazin-4-yl)-4-fluorophenyl)-5-(difluoromethoxy)picolinamide]
- IC50: 7 nM

Structure (SMILES): Cc1cnc(C(=O)Nc2ccc(F)c([C@]3(CF)C[C@@H](C(F)(F)F)OC(N)=N3)c2)cn1 [Example 42, N-(3-((4S,6S)-2-Amino-4-(fluoromethyl)-6-(trifluoromethyl)-5,6-dihydro-4H-1,3-oxazin-4-yl)-4-fluorophenyl)-5-methylpyrazine-2-carboxamide]
- IC50: 64 nM

Structure (SMILES): C[C@@]1(c2cc(NC(=O)c3cnc(OCC(F)F)cn3)ccc2F)C[C@@H](C(F)(F)F)OC(N)=N1 [Example 6, N-(3-((4S,6S)-2-amino-4-methyl-6-(trifluoromethyl)-5,6-dihydro-4H-1,3-oxazin-4-yl)-4-fluorophenyl)-5-(2,2-difluoroethoxyl)pyrazine-2-carboxamide]
- IC50: 24 nM

Structure (SMILES): NC1=N[C@](CF)(c2cc(NC(=O)c3ccc(OCC(F)(F)F)cn3)ccc2F)C[C@@H](C(F)(F)F)O1 [Example 34, N-(3-((4S,6S)-2-Amino-4-(fluoromethyl)-6-(trifluoromethyl)-5,6-dihydro-4H-1,3-oxazin-4-yl)-4-fluorophenyl)-5-(2,2,2-trifluoroethoxy)picolinamide]
- IC50: 71 nM

Structure (SMILES): C[C@@]1(c2cc(NC(=O)c3ncc(Cl)cc3Cl)ccc2F)C[C@@H](C(F)(F)F)OC(N)=N1 [Example 10, N-(3-((4S,6S)-2-Amino-4-methyl-6-(trifluoromethyl)-5,6-dihydro-4H-1,3-oxazin-4-yl)-4-fluorophenyl)-3,5-chloropicolinamide]
- IC50: 6 nM

Structure (SMILES): C[C@@]1(c2cc(NC(=O)c3ncc(C#N)cc3Cl)ccc2F)C[C@@H](C(F)(F)F)OC(N)=N1 [Example 13, N-(3-((4S,6S)-2-Amino-4-methyl-6-(trifluoromethyl)-5,6-dihydro-4H-1,3-oxazin-4-yl)-4-fluorophenyl)-3-chloro-5-cyanopicolinamide]
- IC50: 13 nM

Structure (SMILES): Cc1cc(C#N)cnc1C(=O)Nc1ccc(F)c([C@]2(C)C[C@@H](C(F)(F)F)OC(N)=N2)c1 [Example 12, N-(3-((4S,6S)-2-Amino-4-methyl-6-(trifluoromethyl)-5,6-dihydro-4H-1,3-oxazin-4-yl)-4-fluorophenyl)-5-cyano-3-methylpicolinamide]
- IC50: 3 nM
